Test results published in the CheMixHub viscosity set.

Test: xn = mol fraction of the nth substance listed

COc1ccccc1N + CCC(C)=O
viscosity [mPa·s], 100 kPa
Settings | x1 = 0.0814 | x1 = 0.1724 | x1 = 0.2543 | x1 = 0.3412 | x1 = 0.4394 | x1 = 0.5191 | x1 = 0.6354 | x1 = 0.7587 | x1 = 0.8677
303.15 K | 0.785 | 1.225 | 1.615 | 2.024 | 2.477 | 2.84 | 3.362 | 3.906 | 4.373
308.15 K | 0.727 | 1.145 | 1.51 | 1.888 | 2.31 | 2.648 | 3.136 | 3.642 | 4.073
313.15 K | 0.669 | 1.064 | 1.403 | 1.751 | 2.142 | 2.455 | 2.907 | 3.376 | 3.77

C1CCCCC1 + CCC(C)O
viscosity [mPa·s], 101.33 kPa
Settings | 298.15 K | 303.15 K | 313.15 K
x1 = 0.0998 | 2.334 | – | 1.442
x1 = 0.2045 | 1.841 | – | 1.19
x1 = 0.3002 | 1.524 | – | 1.023
x1 = 0.4007 | 1.285 | – | 0.8968
x1 = 0.4995 | 1.116 | – | 0.8098
x1 = 0.6 | 1.001 | – | 0.7497
x1 = 0.7028 | 0.9323 | – | 0.7106
x1 = 0.8005 | 0.8895 | – | 0.6896
x1 = 0.9036 | 0.872 | – | 0.6801
x2 = 0.1002 | – | 0.8606 | –
x2 = 0.1978 | – | 0.9196 | –
x2 = 0.3031 | – | 1.004 | –
x2 = 0.4019 | – | 1.107 | –
x2 = 0.4961 | – | 1.244 | –
x2 = 0.5974 | – | 1.435 | –
x2 = 0.695 | – | 1.68 | –
x2 = 0.799 | – | 1.996 | –
x2 = 0.8924 | – | 2.321 | –

CCC(C)=O + CCC(C)O
viscosity [mPa·s], 101.3 kPa
Settings | x2 = 0.1018 | x2 = 0.1991 | x2 = 0.2984 | x2 = 0.397 | x2 = 0.4966 | x2 = 0.5968 | x2 = 0.6985 | x2 = 0.8007 | x2 = 0.9003
298.15 K | 0.423 | 0.461 | 0.511 | 0.578 | – | 0.804 | 1.005 | 1.332 | 1.896
308.15 K | 0.38 | 0.415 | 0.452 | 0.505 | 0.576 | 0.677 | 0.824 | – | 1.426
318.15 K | 0.344 | 0.369 | 0.402 | 0.445 | 0.501 | 0.578 | 0.686 | 0.849 | 1.099

COC(C)=O + CCC(C)O
298.15 K, 101.33 kPa
Settings | viscosity [mPa·s]
x1 = 0.1056 | 1.854
x1 = 0.2017 | 1.275
x1 = 0.3076 | 0.921
x1 = 0.3884 | 0.771
x1 = 0.4935 | 0.64
x1 = 0.5697 | 0.559
x1 = 0.6653 | 0.485
x1 = 0.7801 | 0.429
x1 = 0.876 | 0.411

COc1ccccc1N + CCC(C)O
viscosity [mPa·s], 101 kPa
Settings | x1 = 0.1106 | x1 = 0.1844 | x1 = 0.2647 | x1 = 0.3523 | x1 = 0.4825 | x1 = 0.5919 | x1 = 0.6713 | x1 = 0.7566 | x1 = 0.8969
303.15 K | 2.843 | 3.007 | 3.188 | 3.385 | 3.681 | 3.931 | 4.114 | 4.314 | 4.656
308.15 K | 2.398 | 2.561 | 2.739 | 2.935 | 3.229 | 3.483 | 3.671 | 3.878 | 4.233
313.15 K | 2.083 | 2.242 | 2.413 | 2.602 | 2.891 | 3.143 | 3.331 | 3.541 | 3.906
318.15 K | 1.788 | 1.942 | 2.107 | 2.29 | 2.572 | 2.825 | 3.017 | 3.231 | 3.6

COc1ccccc1N + CCCC(=O)O
viscosity [mPa·s], 100 kPa
Settings | x1 = 0.1187 | x1 = 0.1967 | x1 = 0.2806 | x1 = 0.3708 | x1 = 0.5026 | x1 = 0.6111 | x1 = 0.6888 | x1 = 0.7711 | x1 = 0.9041
303.15 K | 1.813 | 2.094 | 2.394 | 2.716 | 3.184 | 3.567 | 3.839 | 4.126 | 4.589
308.15 K | 1.646 | 1.911 | 2.194 | 2.497 | 2.937 | 3.298 | 3.554 | 3.824 | 4.259
313.15 K | 1.478 | 1.726 | 1.992 | 2.276 | 2.689 | 3.027 | 3.266 | 3.519 | 3.926
318.15 K | 1.313 | 1.547 | 1.796 | 2.063 | 2.451 | 2.768 | 2.992 | 3.229 | 3.611
